# The source made the active and inactive calls. The rule behind the calls is not given here.
# What was measured:
# PANC-1 [1] = test: Cytotoxicity against human PANC1 cells under nutrient-deprived medium after 24 hrs by serial dilution method; format: functional
# PANC-1 [2] = test: Selectivity index, ratio of PC100 for human PANC1 cells under nutrient-rich to nutrient-deprived medium; format: functional
# PANC-1 [3] = test: Induction of apoptosis in human PANC1 cells under nutrient-deprived medium assessed as morphological changes at 1 uM after 24 hrs by phase-contrast microscopy; format: functional, cell-based
# PANC-1 [4] = test: Inhibition of human PANC1 cells migration to pipette tip-induced wounds under nutrient-rich medium at 1 uM after 72 hrs by phase-contrast microscopy; format: functional, cell-based
SMILES,Cytotoxicity (PANC-1 [1]),Ratio (PANC-1 [2]),Activity (PANC-1 [3]),Activity (PANC-1 [4])
COc1cc(C[C@H]2C(=O)OC[C@@H]2Cc2ccc(OC)c(OC)c2)ccc1O [ARCTIGENIN],1 µM,,,
CCCC(=O)c1c(O)c(C/C=C(\C)CCC=C(C)C)c(O)c2c([C@@H](O)CC)cc(=O)oc12 [KAYEASSAMIN A],1 µM,256,Active,inactive
CCCC(=O)c1c(O)c(C/C=C(\C)CCC=C(C)C)c2oc(=O)cc([C@@H](O)CC)c2c1O [KAYEASSAMIN B],1 µM,256,Active,inactive
